Laboratory results published in publication PMC3582657 (Clinical pharmacology and therapeutics, 2008).
“And” between values parts separate entries of the source, which are not always exact repeats. Equal values may be shown once. Read-outs that look alike come from different tables or passages of the source.

Assays:
[1] = type: in vivo, human
[2] = tested on: blood glucose; assay: Blood glucose level after glyburide dosing; type: in vivo, human; conditions: rifampin IV (Treatment C) phase in comparison to other treatment groups; repeated ANOVA p<0.0001
[3] = Safety assessment in the clinical study; type: in vivo, human
[4] = multiple doses of rifampin; cited from earlier work
[5] = tested on: blood glucose; conditions: concomitant rifampin versus control; cited from earlier work
[6] = mean±SD; for CL renal: human, urine, CLr (renal clearance)
[7] = tested on: P-glycoprotein (P-gp); conditions: cited from earlier work
[8] = background statement, no reference given; cited from earlier work
[9] = Treatment A: 1.25 mg oral glyburide alone (control), mean±SD, n=9
[10] = Treatment A: 1.25 mg oral glyburide alone (control), median and range
[11] = Treatment B (ciprofloxacin IV phase) vs Treatment A
[12] = Treatment B: 200 mg iv ciprofloxacin just before 1.25 mg oral glyburide, median and range
[13] = Treatment C (rifampin IV phase) vs Treatment A
[14] = Treatment C: single 600 mg iv rifampin then 1.25 mg oral glyburide, mean±SD, n=9
[15] = Treatment D (rifampin IV after oral induction) compared with Treatment E
[16] = Treatment D (rifampin IV after oral induction) compared with control Treatment A
[17] = Treatment D (rifampin IV/PO phase) vs Treatment A
[18] = Treatment D: 600 mg oral rifampin daily for 6 days, next day 600 mg iv rifampin then 1.25 mg oral glyburide, median and range
[19] = Treatment E (rifampin PO phase) vs Treatment A
[20] = single IV infusion of rifampin (Treatment C) compared with control Treatment A
[21] = single IV infusion of rifampin (Treatment C) vs control Treatment A
[22] = Treatment A: 1.25 mg oral glyburide alone (control), plasma, mean±SD, n=9
[23] = iv rifampin effect under induced conditions (Treatment D / Treatment E)
[24] = iv rifampin effect under noninduced conditions (Treatment C / Treatment A)

Structure (SMILES): COc1ccc(Cl)cc1C(=O)NCCc1ccc(S(=O)(=O)NC(=O)NC2CCCCC2)cc1 [glyburide]
- CL/F [1, 9]: 10.1±3.1 mI/h/kg
- Vss/F [1, 9]: 49±33 mI/kg
- Tmax [1, 10]: 3(2–4) h
- AUC0-∞, mean % of control [1, 11]: 107 % of control
- Cmax, mean % of control [1, 11]: 95 % of control
- MRT, mean % of control [1, 11]: 119 % of control
- t1/2, mean % of control [1, 11]: 108 % of control
- Tmax [1, 12]: 3(2–6) h
- AUC0-∞, mean % of control [1, 13]: 225 % of control
- Cmax, mean % of control [1, 13]: 181 % of control
- MRT, mean % of control [1, 13]: 84 % of control
- t1/2, mean % of control [1, 13]: 84 % of control
- CL/F [1, 14]: 4.59±1.20 mI/h/kg
- Vss/F [1, 14]: 16±7 mI/kg
- increase in AUC [1, 15]: 120±56%
- increase in Cmax [1, 15]: 92±76%
- decrease in AUC0-∞ [1, 16]: 22±21% and 22%
- decrease in Cmax [1, 16]: 9±0.3% and 8%
- AUC0-∞, mean % of control [1, 17]: 78 % of control
- Cmax, mean % of control [1, 17]: 91 % of control
- MRT, mean % of control [1, 17]: 61 % of control
- Tmax [1, 18]: 3(2–4) h
- AUC0-∞, mean % of control [1, 19]: 37 % of control
- Cmax, mean % of control [1, 19]: 52 % of control
- MRT, mean % of control [1, 19]: 53 % of control
- change in any pharmacokinetic parameter ([1]; ciprofloxacin co-administered with glyburide (Treatment B) vs Treatment A): No significant changes in any parameter
- Tmax ([1]; human, plasma, oral): 3 h
- Tmax ([1]; human, plasma, po, 1.25 mg): 3 h
- AUC(0-inf) ([1]; human, plasma, po, 1.25 mg, AUC0-∞, Treatment A: 1.25 mg oral glyburide alone (control), plasma, mean±SD, n=9): 1890 ± 682 ng·h/mL
- Cmax ([1]; human, plasma, po, 1.25 mg, Cmax, Treatment A: 1.25 mg oral glyburide alone (control), plasma, mean±SD, n=9): 384 ± 135 ng/mL
- MRT ([1]; human, plasma, po, 1.25 mg, MRT, Treatment A: 1.25 mg oral glyburide alone (control), mean±SD, n=9): 4.5 ± 2 h
- half-life ([1]; human, plasma, po, 1.25 mg, t1/2, Treatment A: 1.25 mg oral glyburide alone (control), mean±SD, n=9): 4.7 ± 1.3 h
- increase in AUC0-∞ [1, 20]: 125± 51.5% and 125%
- increase in Cmax [1, 20]: 81 ± 28% and 81%
- change in apparent terminal half-life (t1/2) ([1]; single IV infusion of rifampin (Treatment C) vs control): did not change
- decrease in oral clearance (CL/F) [1, 21]: 53 ± 13%
- decrease in oral steady-state volume of distribution (Vss/F) [1, 21]: 60 ± 29%
- decremental AUC0–12 of blood glucose [2]: statistically significant decrease
- serious adverse events ([3]; during or after the study, all treatments): No serious adverse events
- decrease in AUC of glyburide by rifampin [4]: 39%
- decrease in maximal concentration (Cmax) of glyburide by rifampin [4]: 22%
- change in blood glucose decremental AUC(0–7) (net area below baseline) [5]: −44%
- change in maximum decrease in the blood glucose concentration [5]: −36%
- 0–12h accumulated urine excretion ([6]; Treatment A, glyburide control): 1.8 ± 1.1 µg
- 0–12h accumulated urine excretion ([6]; Treatment B, ciprofloxacin IV): 1.7 ± 0.6 µg
- 0–12h accumulated urine excretion ([6]; Treatment C, rifampin IV): 3.9 ± 1.3 µg
- 0–12h accumulated urine excretion ([6]; Treatment D, rifampin IV/PO): 1.4 ± 0.5 µg
- 0–12h accumulated urine excretion ([6]; Treatment E, rifampin PO): 1.3 ± 0.7 µg
- CL renal ([6]; iv, Treatment B, ciprofloxacin IV): 0.36 mL/day/kg
- CL renal ([6]; iv, Treatment C, rifampin IV): 0.384 mL/day/kg
- CL renal ([6]; oral, 1.25 mg, Treatment A, glyburide control): 0.408 mL/day/kg
- CL renal ([6]; oral, Treatment D, rifampin IV/PO): 0.384 mL/day/kg
- CL renal ([6]; po, 1.25 mg, Treatment E, rifampin PO): 0.744 mL/day/kg

Structure (SMILES): CO[C@H]1/C=C/O[C@@]2(C)Oc3c(C)c(O)c4c(O)c(c(/C=N/N5CCN(C)CC5)c(O)c4c3C2=O)NC(=O)/C(C)=C\C=C\[C@H](C)[C@H](O)[C@@H](C)[C@@H](O)[C@@H](C)[C@H](OC(C)=O)[C@@H]1C [rifampin]
- adverse event leading to withdrawal ([3]; one subject, after visit 3): allergy to rifampin
- inhibition of Pgp [7]: does not inhibit Pgp

Structure (SMILES): COc1ccc(Cl)cc1C(=O)NCCc1ccc(S(=O)(=O)NC(=O)NC2CCC(O)CC2)cc1 (stereo not drawn) [4-hydroxyglyburide, 4-trans-hydroxyglyburide]
- AUCm/AUCp (AUC ratio of 4-hydroxyglyburide to glyburide) ([1]; Treatment A, glyburide control, mean±SD): 3.67±1.03%
- MRT [1, 9]: 1.6 ± 0.9 h
- t1/2 [1, 9]: 4.2 ± 1.7 h
- Tmax [1, 10]: 4(3–6) h
- AUC0-∞ [1, 22]: 66.0 ± 23.2 ng·h/mL
- Cmax [1, 22]: 9.67 ± 2.51 ng/mL
- AUC0-∞, mean % of control [1, 11]: 101 % of control
- Cmax, mean % of control [1, 11]: 99 % of control
- MRT, mean % of control [1, 11]: 89 % of control
- t1/2, mean % of control [1, 11]: 115 % of control
- AUCm/AUCp (AUC ratio of 4-hydroxyglyburide to glyburide) ([1]; Treatment B, ciprofloxacin IV, mean±SD): 3.34±0.37%
- Tmax [1, 12]: 4(3–8) h
- AUC0-∞, mean % of control [1, 13]: 145 % of control
- Cmax, mean % of control [1, 13]: 134 % of control
- MRT, mean % of control [1, 13]: 121 % of control
- t1/2, mean % of control [1, 13]: 102 % of control
- AUCm/AUCp (AUC ratio of 4-hydroxyglyburide to glyburide) ([1]; Treatment C, rifampin IV, mean±SD): 2.36±0.61 %
- MRT [1, 14]: 1.5 ± 0.8 h
- t1/2 [1, 14]: 3.8 ± 0.7 h
- Tmax ([1]; Treatment C: single 600 mg iv rifampin then 1.25 mg oral glyburide, median and range): 4(3–6) h
- increase in AUC [1, 15]: 67±44%
- increase in Cmax [1, 15]: 49±44%
- decrease in Cmax [1, 16]: not significant
- AUC0-∞, mean % of control [1, 17]: 54 % of control
- Cmax, mean % of control [1, 17]: 81 % of control
- MRT, mean % of control [1, 17]: 77 % of control
- decrease in mean residence time (MRT) ([1]; Treatment D versus control Treatment A): 23%
- AUCm/AUCp (AUC ratio of 4-hydroxyglyburide to glyburide) ([1]; Treatment D, rifampin IV/PO, mean±SD): 2.52±0.35 %
- Tmax [1, 18]: 4(3–6) h
- AUC0-∞, mean % of control [1, 19]: 33 % of control
- Cmax, mean % of control [1, 19]: 56 % of control
- MRT, mean % of control [1, 19]: 41 % of control
- AUCm/AUCp (AUC ratio of 4-hydroxyglyburide to glyburide) ([1]; Treatment E, rifampin PO, mean±SD): 3.36±0.60%
- AUC0-∞, ratio D to E [1, 23]: 1.7±0.4
- Cmax, ratio D to E [1, 23]: 1.5±0.4
- MRT, ratio D to E [1, 23]: 1.3±1.3
- AUC0-∞, ratio C to A [1, 24]: 1.5±0.4
- Cmax, ratio C to A [1, 24]: 1.3±0.5
- MRT, ratio C to A [1, 24]: 1.2±0.9
- increase in AUC0-∞ [1, 20]: 45 ± 37%
- increase in Cmax [1, 20]: 34 ± 47%
- hypoglycemic activity (potency) retained relative to the parent compound [8]: 75%
- 0–12h accumulated urine excretion ([6]; Treatment A, glyburide control): 358 ± 107 µg
- CLr (renal clearance) ([6]; Treatment A, glyburide control): 2200 ± 619 mL/day/kg
- 0–12h accumulated urine excretion ([6]; Treatment B, ciprofloxacin IV): 325 ± 77 µg
- CLr (renal clearance) ([6]; Treatment B, ciprofloxacin IV): 2220 ± 564 mL/day/kg
- 0–12h accumulated urine excretion ([6]; Treatment C, rifampin IV): 457 ± 72 µg
- CLr (renal clearance) ([6]; Treatment C, rifampin IV): 2120 ± 629 mL/day/kg
- 0–12h accumulated urine excretion ([6]; Treatment D, rifampin IV/PO): 208±56 ^** ug
- CLr (renal clearance) ([6]; Treatment D, rifampin IV/PO): 2100 ± 401 mL/day/kg
- 0–12h accumulated urine excretion ([6]; Treatment E, rifampin PO): 135 ± 40 µg
- CLr (renal clearance) ([6]; Treatment E, rifampin PO): 2200 ± 665 mL/day/kg

Structure (SMILES): COc1ccc(Cl)cc1C(=O)NCCc1ccc(S(=O)(=O)NC(=O)N[C@@H]2CCC[C@H](O)C2)cc1 (relative stereo) [3-cis-hydroxyglyburide]
- hypoglycemic activity (potency) retained relative to the parent compound [8]: 50%
